Laboratory results as given in patent publication US5169769A, “Method of hydroxylating substituted 3-aminopyridinones using mammalian tissue” (Merck & Co., Inc., priority 1991, dated 1992).

Target: T1, recombinant HIV reverse transcriptase (HIV RTR) (Human immunodeficiency virus type 1 group M subtype B, UniProt P04585)
T1 construct: recombinant HIV reverse transcriptase (HIV RTR)
Experiment: Reverse Transcriptase Assay: incorporation of tritiated deoxyguanosine monophosphate into acid-precipitable cDNA
Format: biochemical
Settings: purified HIV RTR; poly r(C).oligo d(G)12-18 and dGTP at about Km; 37° C. for 45 minutes; read-out: calculated IC50
Method: Reverse Transcriptase Assay
The assay measures the incorporation of tritiated deoxyguanosine monophosphate by recombinant HIV reverse transcriptase (HIV RTR) (or other RT) into acid-precipitable cDNA at the Km values of dGTP and poly r(C).cndot.oligo d(G)12-18. Compounds (I) and (II) inhibit this incorporation.
Thirty uL of a reaction mixture containing equal volumes of: 500 mM Tris.cndot.HCl (pH 8.2), 300 mM MgCl2, 1200 mM KCl, 10 mM DTT, 400 μg/mL poly r(c).cndot.oligo d(G) [prepared by dissolving 1.5 mg (25 U) poly r(C).cndot.oligo d(G) in 1.5 ml sterile distilled H2 O and diluting to 400 μg/ml], 0.1 μCi/μl [^3 H] dGTP, 160 μM dGTP, were added to 10 μl sterile distilled H2 O, 2.5 μl of potential inhibitor. Ten μL of 3.2 nM purified HIV RTR were added to start the reaction. The mixture was incubated at 37° C. for 45 minutes.
After incubation was complete, the tubes were cooled in ice for 5 minutes. Ice-cold 13% TCA containing 10 mM NaPPi (200 μl) was added and the mixture incubated on ice for 30 minutes. The precipitated cDNA was removed by filtration using presoaked glass filters [TCA, NaPPi ]. The precipitate was then washed with 1N HCl, 10 mM NaPPi. The filter discs were then counted in a scintillation counter. […]
Compounds (I) and (II) were evaluated using the methodology described above.

SMILES	IC50 [nM]
Cc1[nH]c(=O)c(NCc2nc3c(C)ccc(C)c3o2)cc1C(C)O (centres unmarked) [Compound (I), 3-[(4,7-dimethylbenzoxazol-2-yl)methylamino]-5-(1-hydroxyethyl)-6-methyl-2(1H)-pyridinone]	~405
CCc1cc(NCc2nc3c(C)ccc(C)c3o2)c(=O)[nH]c1CO [Compound (II), 3-[(4,7-dimethylbenzoxazol-2-yl)methylamino]-5-ethyl-6-hydroxymethyl-2(1H)-pyridinone]	~33
